The record followed here is US7858637B2, “Administration of TLR7 ligands and prodrugs thereof for treatment of infection by hepatitis C virus” (priority 2003, dated 2010).

Like-named read-outs stand apart in the source and are kept apart here.

In test [1] the test system is human peripheral blood mononuclear cells (PBMC). The test can be described thus: PBMC assay of interferon alpha release (masking). It is filed as cell-based. As to the method:
A typical experiment would use human peripheral blood mononuclear cells (PBMC) isolated from a healthy donor and placed in replicate cell culture wells; typically, 2×10^6 to 5×10^6 cells are placed in each well. The PBMC are incubated in the absence of test compounds at 37° C. in a humidified atmosphere containing 5% CO2 for 24 hours to allow stabilization to the culture conditions, and then 100 micromolar isatoribine, the TLR7 ligand and a corresponding TLR7 ligand prodrug are added to separate wells containing PBMC from the same donor; untreated controls are included. The concentrations of TLR7 ligand and TLR7 ligand prodrug may be varied to suit the particular experiment, and the PBMC cultures are then incubated at 37° C. in a humidified atmosphere containing 5% CO2 for a period of time ranging from two hours to 48 hours. Samples of cell culture supernate media are taken during the incubation. These are assayed for cytokine production by ELISA. Additionally the amount of TLR7 ligand and TLR7 ligand prodrug remaining at the end of the incubation may be assayed by LC-MS. Cytokine production is calculated relative to production in the isatoribine control, following subtraction of the cytokine production in untreated controls.
Thus, if the TLR7 ligand generates more interferon alpha (a conveniently measured cytokine) than does the corresponding TLR7 ligand prodrug after a similar duration of exposure and concentration, the TLR7 ligand prodrug may be deemed a “masked” TLR7 ligand prodrug.

In test [2] the test system is HCV replicon. Briefly: HCV replicon-based viral bioassay with supernatants of compound-treated PBMC. It is filed as cell-based, hepatitis C virus. As to the method: A quantitative assay was developed which is based on measuring the activity of the luciferase reporter gene that was integrated into an HCV replicon. By using this system, interferons from TLR7 agonist-treated PBMCs were measured and their inhibitory activity was assessed using the luciferase reporter replicon.
Human PBMCs isolated from a healthy donor were placed in replicate cell culture wells (5×10^6 cells per well). The PBMCs are incubated in the absence of test compounds at 37° C. in a humidified atmosphere containing 5% CO2 for 24 hours to allow stabilization to the culture conditions, and then the TLR7 ligand or a drug free control is added to replicate wells containing PBMCs from the same donor. The concentrations of TLR7 ligand may be varied to suit the particular experiment, and the PBMC cultures are then incubated at 37° C. in a humidified atmosphere containing 5% CO2 for eight hours. Samples of cell culture supernatant are taken at the eight hour time point (or twenty four hour time point in case of Loxoribine and its prodrugs) from TLR7 ligand treated and control wells and are assayed for interferon-alpha production by ELISA. Supernatants from compound-treated cells and a no-drug control were diluted at 1:10, 1:100, and 1:1000 in RPMI media and applied to a 96-well plate of Huh7 hepatocyte cells containing the luciferase reporter replicon. Cells were incubated for 48 hours at 37° C. in a tissue culture incubator.
After the incubation period, the 96-well plates are washed 2× with PBS and are lysed with passive lysis buffer (Promega). Plates are shaken at room temperature for 20 minutes and standard luciferase assay reagent (Promega) is added to each well by injection and the plate is read on an Lmax luminometer (Molecular Devices).
A supernatant collected from PBMC cells non-exposed to the compound and diluted as specified in the first column was used as a control (“Blank supernatant”). The PBMC cells were isolated from a single blood donor as specified.
(In antiviral work, replicon cells carry a viral genome segment that copies itself.)

[3] abbreviates: Homo sapiens, PBMC, Table 10, 100 μM, 24 hours exposure, read-out: Amount of INFa relative to that induced by isatoribine at 100 μM.
Setting [4] is: Homo sapiens, PBMC, Table 14, 24 hours exposure, read-out: Amount of INFa relative to that induced by isatoribine at 100 μM.
Where [5] appears, read: Homo sapiens, PBMC, Table 9, 100 μM, 24 hours exposure, same blood donor, read-out: Amount of INFa relative to that induced by isatoribine at 100 μM.
Where [6] appears, read: Homo sapiens, PBMC, Table 11, 100 μM, 24 hours exposure, read-out: Amount of INFa relative to that induced by isatoribine at 100 μM.
Setting [7] is: Homo sapiens, PBMC, Table 13, 100 μM, 24 hours exposure, read-out: Amount of INFa relative to that induced by isatoribine at 100 μM.

In the case of `CCOC(=O)Oc1nc2c(N)nc(OCCOC)nc2n1Cc1ccccc1` [Compound 51, Carbonic acid 6-amino-9-benzyl-2-(2-methoxy-ethoxy)-9H-purin-8-yl ester ethyl ester], the Emax at 32 µM in test [1] (Homo sapiens, PBMC, Table 14, 32 μM, 24 hours exposure, read-out: Amount of INFa relative to that induced by isatoribine at 100 μM) was determined as 18%. On to `C=CCn1c(=O)n([C@@H]2O[C@H](CO)[C@@H](O)[C@H]2O)c2nc(N)nc(OCC)c21` [Compound 45, 7-Allyl-2-amino-6-ethoxy-9-β-D-ribofuranosyl-7,9-dihydro-purin-8-one], for which, in test [1] (setting [3]), the Emax at 100 µM is 0%. In the case of `CCCCCOC(=O)Oc1nc2c(N)nc(OCCOC)nc2n1Cc1ccccc1` [Compound 54, Carbonic acid 6-amino-9-benzyl-2-(2-methoxy-ethoxy)-9H-purin-8-yl ester pentyl ester], the Emax at 10 µM in test [1] (setting [4]) amounted to 15%. For `C=CCn1c(=O)n([C@@H]2O[C@H](COC(=O)[C@@H](N)C(C)C)[C@@H](O)[C@H]2O)c2nc(N)[nH]c(=O)c21` [Compound 68, 7-Allyl-2-Amino-9-(5′-O-L-valinyl-β-D-ribofuranosyl)-7,9-dihydro-1H-purine-6,8-dione], the Emax at 100 µM in test [1] (setting [3]) was found to be 0%. As for `COCCOc1nc(N)c2nc(OC)n(Cc3ccccc3)c2n1` [Compound 65, 9-Benzyl-8-methoxy-2-(2-methoxy-ethoxy)-9H-purin-6-ylamine], the Emax at 100 µM in test [1] (Homo sapiens, PBMC, Table 14, 100 μM, 24 hours exposure, read-out: Amount of INFa relative to that induced by isatoribine at 100 μM) is 0%.

For the compound `CC(=O)OC[C@H]1O[C@@H](n2c(=O)sc3c(OCc4oc(=O)oc4C)nc(N)nc32)[C@H](OC(C)=O)[C@@H]1OC(C)=O` [Compound 85, 5-Amino-7-(5-methyl-2-oxo-[1,3]dioxol-4-ylmethoxy)-3-(2′,3′,5′-tri-O-acetyl-β-D-ribofuranosyl)-thiazolo[4,5-d]pyrimidin-2-one], the Emax at 100 µM in test [1] (setting [5]) amounted to 0%. Regarding `CCCCCOC(=O)Nc1nc2ccccc2c2c1ncn2CC(C)C` [Compound 34, (1-Isobutyl-1H-imidazo[4,5-c]quinolin-4-yl)-carbamic acid pentyl ester], the Emax at 100 µM in test [1] (setting [6]) turned out to be 0%. Regarding `CCOC(=O)N(C)COc1nc(N)nc2c1sc(=O)n2[C@@H]1O[C@H](CO)[C@@H](O)[C@H]1O` [Compound 84, (5-Amino-2-oxo-3-β-D-ribofuranosyl-2,3-dihydro-thiazolo[4,5-d]pyrimidin-7-yloxymethyl)-methyl-carbamic acid ethyl ester], the Emax at 100 µM in test [1] (setting [5]) was 0%. Consider `CCOC(=O)Nc1nc2ccccc2c2c1ncn2CC(C)C` [Compound 50, (1-Isobutyl-1H-imidazo[4,5-c]quinolin-4-yl)-carbamic acid ethyl ester], for which the Emax at 100 µM in test [1] (setting [6]) is 0%. Turning to `CCOc1nc(N)nc(-c2ccccc2)c1Br` [Compound 37, 5-Bromo-4-ethoxy-6-phenyl-pyrimidin-2-ylamine], the Emax at 100 µM in test [1] (setting [7]) came to 0%. Consider “[2-Ethoxymethyl-1-(2-hydroxy-2-methyl-propyl)-1H-imidazo[4,5-c]quinolin-4-yl]-carbamic acid ethyl ester [Compound 39]”, for which, in test [1] (Table 12, 1 μM, 24 hours exposure), the “Amount of INFa relative to that induced by isatoribine at 100 μM” value was 95 @ 1 μM %.

As to `COc1nc(N)nc2c1sc(=O)n2[C@@H]1O[C@H](CO)[C@@H](O)[C@H]1O` [Compound 79, 5-Amino-7-methoxy-3-β-D-ribofuranosyl-thiazolo[4,5-d]pyrimidin-2-one], the Emax at 100 µM in test [1] (setting [5]) came out at 0%.

`CC(C)Cn1cnc2c(N)nc3ccccc3c21` [Compound 31, 1-Isobutyl-1H-imidazo[4,5-c]quinolin-4-ylamine]: the Emax at 100 µM in test [1] (Homo sapiens, PBMC, 24 h, read-out: Amount of INFa relative to that induced by isatoribine at 100 μM) fell in the range of 60 to 76%. The HCV replicon inhibition in test [2] (Table 5 No. 1, PBMC exposed 8 hours to 3.2 μM, donor FL75287, supernatant dilution 1:10) came to 100%; in test [2] (Table 5 No. 1, PBMC exposed 8 hours to 3.2 μM, donor FL75287, supernatant dilution 1:100), 100%; in test [2] (Table 5 No. 1, PBMC exposed 8 hours to 3.2 μM, donor FL75287, supernatant dilution 1:1000) it was 89%; in test [2] (Table 5 No. 2, PBMC exposed 8 hours to 3.2 μM, donor FL75287, supernatant dilution 1:10), 100%; in test [2] (Table 5 No. 2, PBMC exposed 8 hours to 3.2 μM, donor FL75287, supernatant dilution 1:100) it was 75%; in test [2] (Table 5 No. 2, PBMC exposed 8 hours to 3.2 μM, donor FL75287, supernatant dilution 1:1000), 1%. Regarding `CCOC(=O)NCOc1nc(N)nc2c1sc(=O)n2[C@@H]1O[C@H](CO)[C@@H](O)[C@H]1O` [Compound 82, (5-Amino-2-oxo-3-β-D-ribofuranosyl-2,3-dihydro-thiazolo[4,5-d]pyrimidin-7-yloxymethyl)-carbamic acid ethyl ester], the Emax at 100 µM in test [1] (setting [5]) stood at 0%. For the compound `COCCOc1nc(N)c2ncn(Cc3ccccc3)c2n1` [Compound 62, 9-Benzyl-2-(2-methoxy-ethoxy)-9H-purin-6-ylamine], the Emax at 0.1 µM in test [1] (Homo sapiens, PBMC, Table 14, 0.1 μM, 24 hours exposure, read-out: Amount of INFa relative to that induced by isatoribine at 100 μM) was determined as 0%. As to `Nc1ncc(Br)c(-c2ccccc2)n1` [Compound 48, 5-Bromo-4-phenyl-pyrimidin-2-ylamine], in test [1] (setting [7]), the Emax at 100 µM stood at 0%. `C=CCn1c(=O)n([C@@H]2O[C@H](CO)[C@@H](O)[C@H]2O)c2nc(N)[nH]c(=O)c21` [Compound 17, 7-allyl-2-amino-9-β-D-ribofuranosyl-7,9-dihydro-1H-purine-6,8-dione]: the Emax at 100 µM in test [1] (setting [3]) was determined as 50%. In addition, the HCV replicon inhibition in test [2] (Table 4 No. 1, PBMC exposed 24 hours to 100 μM, donor FL75864, supernatant dilution 1:10) was 100%; in test [2] (Table 4 No. 1, PBMC exposed 24 hours to 100 μM, donor FL75864, supernatant dilution 1:100), 74%; in test [2] (Table 4 No. 1, PBMC exposed 24 hours to 100 μM, donor FL75864, supernatant dilution 1:1000) it was 17%. On to `C=CCn1c(=O)n([C@@H]2O[C@H](CO)[C@@H](O)[C@H]2O)c2nc(N)ncc21` [Compound 43, 7-Allyl-2-amino-9-β-D-ribofuranosyl-7,9-dihydro-purin-8-one], for which the Emax at 100 µM in test [1] (setting [3]) is 0%.

For the compound `CCOc1nc(N)nc2c1sc(=O)n2[C@@H]1O[C@H](CO)[C@@H](O)[C@H]1O` [Compound 77, 5-Amino-7-ethoxy-3-β-D-ribofuranosyl-thiazolo[4,5-d]pyrimidin-2-one], in test [1] (setting [5]), the Emax at 100 µM is 0%.

In the case of `CCCCCOC(=O)Nc1nc(-c2ccccc2)c(Br)c(=O)[nH]1` [Compound 49, (5-Bromo-6-oxo-4-phenyl-1,6-dihydro-pyrimidin-2-yl)-carbamic acid pentyl ester], the Emax at 100 µM in test [1] (setting [7]) was determined as 0%. Turning to `CCOc1nc2c(N)nc(OCCOC)nc2n1Cc1ccccc1` [Compound 64, 9-Benzyl-8-ethoxy-2-(2-methoxy-ethoxy)-9H-purin-6-ylamine], the Emax at 10 µM in test [1] (setting [4]) is 0%. For the compound `CCOC(=O)Nc1nc(-c2ccccc2)c(Br)c(=O)[nH]1` [Compound 36, (5-Bromo-6-oxo-4-phenyl-1,6-dihydro-pyrimidin-2-yl)-carbamic acid ethyl ester], the Emax at 100 µM in test [1] (setting [7]) was 0%.
